Laboratory results taken from PubChem BioAssay AID304 (DTP/NCI, 2004).
“And” between values parts separate entries of the source, which are not always exact repeats. Equal values may be shown once. Inconclusive results and toxic doses are left out. Starred links: 1 amine or outer side, 2 acyl side, 3 side chain; linkers in the order of their positions; H or OH if unused. Positions of bridges follow the written chain, without caps; N, C: chain ends. Non-standard residues stand in square brackets, D forms with d. Residues, ends and D or L forms follow the SMILES beside them. Chains are numbered I, II in the order given. Actinocin(9to1) = Cc1c2oc3c(C)ccc(C(=O)[*:1])c3nc-2c(C(=O)[*:2])c(N)c1=O; aThr = C[C@H](O)[C@H](N)C(=O)O; NMeV = CN[C@H](C(=O)O)C(C)C; Sar = CNCC(=O)O

Test system: Lymphosarcoma Mecca ip in C3AKF1 mice, survival T/C%
Assay: NCI In Vivo Anticancer Drug Screen. Data for tumor model Lymphosarcoma Mecca (intraperitoneal) in C3AKF1 (CHKRF1) mice
Details: endpoint: survival time, mean or median, higher = longer survival
Experimental: The antitumor activity of compounds was measured in mice bearing transplantable tumors. Survival or tumor size were measured and the results are expressed as the measurement made in the treated group (T) divided by the measurement made in the vehicle treated control group (C). The tumor model used in this assay is Lymphosarcoma Mecca (intraperitoneal) in C3AKF1 (CHKRF1) mice

[1] = dose: 5.0 mg/kg/injection, schedule: Q01DX010 (ip), vehicle: saline
[2] = dose: 6.0 mg/kg/injection, schedule: Q01DX010 (ip), vehicle: saline
[3] = dose: 12.0 mg/kg/injection, schedule: Q01DX010 (ip), vehicle: saline
[4] = dose: 8.0 mg/kg/injection, schedule: Q01DX010 (ip), vehicle: saline
[5] = dose: 12.5 mg/kg/injection, schedule: Q01DX010 (ip), vehicle: saline
[6] = dose: 25.0 mg/kg/injection, schedule: Q01DX010 (ip), vehicle: saline
[7] = dose: 20.0 mg/kg/injection, schedule: Q01DX010 (ip), vehicle: saline
[8] = dose: 100.0 mg/kg/injection, schedule: Q01DX010 (ip), vehicle: saline
[9] = dose: 400.0 mg/kg/injection, schedule: Q01DX010 (ip), vehicle: saline

Q: Which T/C [1] does the source give for `N#[N+]c1cnc([O-])[nH]c1=O` here?
A: 157 % of control

Q: Which results are given for `Nc1ncnc2[nH]ncc12`?
A: T/C (dose: 1.5 mg/kg/injection, schedule: Q01DX010 (ip), vehicle: saline): 105 % of control; T/C (dose: 3.0 mg/kg/injection, schedule: Q01DX010 (ip), vehicle: saline): 111 % of control and 115 % of control; T/C [2]: 95 % of control; T/C [3]: 95 % of control

Q: Which T/C (dose: 4.7 mg/kg/injection, schedule: Q01DX010 (ip), vehicle: saline) does the source give for `CO[C@@H]1[C@@H](OC2OC(C)C(OC3CC(C)(O)C(OC(=O)CC(C)C)C(C)O3)C(N(C)C)C2O)[C@@H](CC=O)C[C@@H](C)C(=O)/C=C/C2O[C@H]2C[C@@H](C)OC(=O)C[C@H]1OC(C)=O` (stereo partly drawn) here?
A: 90 % of control

Q: What about the T/C (dose: 9.4 mg/kg/injection, schedule: Q01DX010 (ip), vehicle: saline) of the same compound?
A: 100 % of control

Q: What about the T/C (dose: 18.8 mg/kg/injection, schedule: Q01DX010 (ip), vehicle: saline) of the same compound?
A: 90 % of control

Q: And the T/C (dose: 37.5 mg/kg/injection, schedule: Q01DX010 (ip), vehicle: saline)?
A: 90 % of control and 95 % of control

Q: What about the T/C (dose: 75.0 mg/kg/injection, schedule: Q01DX010 (ip), vehicle: saline) of the same compound?
A: 86 % of control

Q: What does the source list for `Nc1nc(SCc2ccccc2)c2[nH]cnc2n1`?
A: T/C [4]: 90 % of control; T/C (dose: 16.0 mg/kg/injection, schedule: Q01DX010 (ip), vehicle: saline): 90 % of control

Q: Which results are given for `O=NN(CCCl)C(=O)NCCCl`?
A: T/C (dose: 6.25 mg/kg/injection, schedule: Q01DX010 (ip), vehicle: saline): 275 % of control and 303 % of control; T/C [5]: 151 % of control and 155 % of control; T/C [6]: 92 % of control and 115 % of control

Q: For `N#CCSc1ncnc2nc[nH]c12`, which T/C (dose: 15.0 mg/kg/injection, schedule: Q01DX010 (ip), vehicle: saline) is on record?
A: 95 % of control and 119 % of control

Q: What about the T/C (dose: 30.0 mg/kg/injection, schedule: Q01DX010 (ip), vehicle: saline) of the same compound?
A: 90 % of control and 95 % of control

Q: And the T/C (dose: 60.0 mg/kg/injection, schedule: Q01DX010 (ip), vehicle: saline)?
A: 90 % of control and 95 % of control

Q: And the T/C (dose: 120.0 mg/kg/injection, schedule: Q01DX010 (ip), vehicle: saline)?
A: 95 % of control

Q: What does the source list for `Nc1nc(F)nc2c1ncn2C1OC(CO)C(O)C1O` (stereo not drawn)?
A: T/C (dose: 0.5 mg/kg/injection, schedule: Q01DX010 (ip), vehicle: saline): 100 % of control; T/C (dose: 1.0 mg/kg/injection, schedule: Q01DX010 (ip), vehicle: saline): 90 % of control and 105 % of control; T/C (dose: 2.0 mg/kg/injection, schedule: Q01DX010 (ip), vehicle: saline): 90 % of control and 100 % of control; T/C (dose: 4.0 mg/kg/injection, schedule: Q01DX010 (ip), vehicle: saline): 100 % of control; T/C [4]: 100 % of control

Q: How did the T/C (dose: 13.0 micrograms/kg/injection, schedule: Q01DX010 (ip), vehicle: acid diluted with saline) turn out when `Cc1c2oc3c(C)ccc(C(=O)N[C@@H]4C(=O)N[C@H](C(C)C)C(=O)N5CCC[C@H]5C(=O)N(C)CC(=O)N(C)[C@@H](C(C)C)C(=O)O[C@H]4C)c3nc-2c(C(=O)N[C@@H]2C(=O)N[C@H](C(C)C)C(=O)N3CCC[C@H]3C(=O)N(C)CC(=O)N(C)[C@@H](C(C)C)C(=O)O[C@H]2C)c(N)c1=O` (I: [aThr][dV]P[Sar][NMeV] / II: [aThr][dV]P[Sar][NMeV]; ester I:1-I:C, II:1-II:C; linker I:N-II:N via Actinocin(9to1)) was run?
A: 183 % of control

Q: And the T/C (dose: 25.0 micrograms/kg/injection, schedule: Q01DX010 (ip), vehicle: acid diluted with saline)?
A: 103 % of control

Q: What about the T/C (dose: 50.0 micrograms/kg/injection, schedule: Q01DX010 (ip), vehicle: acid diluted with saline) of the same compound?
A: 123 % of control

Q: With `C[C@@H]1C[C@@H]([C@H](O)CC2CC(=O)NC(=O)C2)C(=O)[C@@H](C)C1` as the compound, how does the T/C [1] read?
A: 109 % of control

Q: And the T/C (dose: 10.0 mg/kg/injection, schedule: Q01DX010 (ip), vehicle: saline)?
A: 100 % of control and 113 % of control

Q: And the T/C [7]?
A: 95 % of control

Q: With `CCCSc1ncnc2nc[nH]c12` as the compound, how does the T/C (dose: 31.3 mg/kg/injection, schedule: Q01DX010 (ip), vehicle: saline) read?
A: 105 % of control and 111 % of control

Q: And the T/C (dose: 62.5 mg/kg/injection, schedule: Q01DX010 (ip), vehicle: saline)?
A: 105 % of control and 111 % of control

Q: What about the T/C (dose: 125.0 mg/kg/injection, schedule: Q01DX010 (ip), vehicle: saline) of the same compound?
A: 105 % of control

Q: And the T/C (dose: 250.0 mg/kg/injection, schedule: Q01DX010 (ip), vehicle: saline)?
A: 88 % of control

Q: Which T/C (dose: 1.25 mg/kg/injection, schedule: Q01DX010 (ip), vehicle: saline) does the source give for `O=C(O)c1[nH]c(=O)[nH]c(=O)c1F` here?
A: 100 % of control

Q: And the T/C (dose: 2.5 mg/kg/injection, schedule: Q01DX010 (ip), vehicle: saline)?
A: 88 % of control and 122 % of control

Q: And the T/C [7]?
A: 122 % of control

Q: `Nc1nc(=O)n(C2CC(O)C(CO)O2)cc1Br` (stereo not drawn) was tested. Which T/C (dose: 50.0 mg/kg/injection, schedule: Q01DX010 (ip), vehicle: saline) did it give?
A: 100 % of control

Q: What about the T/C [8] of the same compound?
A: 100 % of control and 105 % of control

Q: What about the T/C (dose: 200.0 mg/kg/injection, schedule: Q01DX010 (ip), vehicle: saline) of the same compound?
A: 100 % of control and 111 % of control

Q: And the T/C [9]?
A: 90 % of control and 94 % of control

Q: What about the T/C (dose: 800.0 mg/kg/injection, schedule: Q01DX010 (ip), vehicle: saline) of the same compound?
A: 88 % of control

Q: `CN(C)/N=N/c1nc[nH]c1C(N)=O` was tested. Which T/C [9] did it give?
A: 155 % of control

Q: Which T/C (dose: 12.5 mg/kg/injection, schedule: Q01DX010 (sc), vehicle: steriod suspending solution) does the source give for `CC(=O)O[C@]1(C(C)=O)CC[C@H]2[C@@H]3C[C@H](C)C4=CC(=O)C=C[C@]4(C)[C@@]3(F)[C@@H](O)C[C@@]21C` here?
A: 105 % of control

Q: What about the T/C (dose: 25.0 mg/kg/injection, schedule: Q01DX010 (sc), vehicle: steriod suspending solution) of the same compound?
A: 100 % of control

Q: What about the T/C (dose: 50.0 mg/kg/injection, schedule: Q01DX010 (sc), vehicle: steriod suspending solution) of the same compound?
A: 100 % of control

Q: And the T/C (dose: 100.0 mg/kg/injection, schedule: Q01DX010 (sc), vehicle: steriod suspending solution)?
A: 90 % of control

Q: Which T/C [2] does the source give for `O=C(Nc1ccc(C2=NCCN2)cc1)c1ccc(C(=O)Nc2ccc(C3=NCCN3)cc2)c([N+](=O)[O-])c1` here?
A: 116 % of control

Q: And the T/C [4]?
A: 116 % of control

Q: What about the T/C [3] of the same compound?
A: 116 % of control

Q: How did the T/C [5] turn out when `CS(=O)(=O)OCCC(=O)N1CCN(C(=O)CCOS(C)(=O)=O)CC1` was run?
A: 120 % of control

Q: What about the T/C [6] of the same compound?
A: 105 % of control and 110 % of control

Q: And the T/C [8]?
A: 160 % of control
